Experimental findings from patent publication US12528801B2 (Givaudan SA, priority 2019, dated 2026) are described below.

The target in this assay is T1, hTRPM8 (Homo sapiens, UniProt Q7Z2W7).
T1 construct: expressed in transfected cells
T1 sequence (Q7Z2W7 whole entry): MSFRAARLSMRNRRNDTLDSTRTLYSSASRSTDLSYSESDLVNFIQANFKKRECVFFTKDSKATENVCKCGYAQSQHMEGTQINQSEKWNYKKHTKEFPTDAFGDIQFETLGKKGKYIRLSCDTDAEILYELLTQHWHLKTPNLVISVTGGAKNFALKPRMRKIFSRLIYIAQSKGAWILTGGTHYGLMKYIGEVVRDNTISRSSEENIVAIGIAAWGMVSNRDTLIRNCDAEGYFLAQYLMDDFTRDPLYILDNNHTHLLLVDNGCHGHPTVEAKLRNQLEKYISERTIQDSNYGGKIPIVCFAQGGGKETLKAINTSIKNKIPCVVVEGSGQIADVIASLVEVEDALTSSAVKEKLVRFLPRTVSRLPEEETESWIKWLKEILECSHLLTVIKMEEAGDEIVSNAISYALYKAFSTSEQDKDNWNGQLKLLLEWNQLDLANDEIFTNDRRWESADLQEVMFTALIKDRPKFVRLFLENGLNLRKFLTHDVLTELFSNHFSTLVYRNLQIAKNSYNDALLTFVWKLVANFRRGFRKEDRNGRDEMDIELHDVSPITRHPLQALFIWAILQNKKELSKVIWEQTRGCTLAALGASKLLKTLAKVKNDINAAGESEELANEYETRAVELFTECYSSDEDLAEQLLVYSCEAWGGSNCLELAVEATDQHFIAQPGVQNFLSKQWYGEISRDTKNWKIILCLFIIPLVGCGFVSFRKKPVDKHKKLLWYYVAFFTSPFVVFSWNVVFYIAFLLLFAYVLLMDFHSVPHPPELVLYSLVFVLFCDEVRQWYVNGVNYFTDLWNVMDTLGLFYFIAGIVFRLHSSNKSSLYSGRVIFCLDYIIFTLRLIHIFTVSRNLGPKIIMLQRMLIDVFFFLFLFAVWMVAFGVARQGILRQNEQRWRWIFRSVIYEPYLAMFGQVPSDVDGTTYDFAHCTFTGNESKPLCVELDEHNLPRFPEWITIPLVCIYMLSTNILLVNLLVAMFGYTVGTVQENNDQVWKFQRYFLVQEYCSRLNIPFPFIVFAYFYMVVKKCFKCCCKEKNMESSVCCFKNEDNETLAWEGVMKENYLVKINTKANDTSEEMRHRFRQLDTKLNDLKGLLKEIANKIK
Nature of the assay: Assay on TRPM8 modulators: calcium imaging (Fluo-4, Flexstation) in HEK293 cell line stably expressing hTRPM8. It counts as cell-based. To be noted: HEK293 cells stably expressing hTRPM8; calcium influx, Fluo-4, Flexstation 3; sigmoidal dose-response fit. Here is the method: A HEK293 cell line stably expressing hTRPM8 was generated according to Klein of at, (Chem. Senses 36: […], 2011) and receptor activation was monitored by calcium imaging in a Flexstation. For Ca-imaging assays of TRPM8 channel activation, cells were seeded on day 0 at a density of 12000 cells per well in Dulbecco's modified Eagle medium (DMEM) containing 9% foetal bovine serum in black, clear bottom 96-well plates that had been coated with 0.001% polyethyleneimine (molecular weight=60 000, Acros Organics). On day 2, agonists were evaluated via calcium imaging using Fluo-4. Briefly, growth medium was discarded, and the cells were incubated in the dark for 1 h at 37° C. in 50 μL loading buffer consisting of 2.7 μM Fluo-4 AM (Invitrogen) and […] probenecid (Sigma-Aldrich) in DMEM (without serum). After incubation, the plates were washed five times with 100 μL of assay buffer (in mM: 130 NaCl, 5 KCl, 10 HEPES, 2 CaCl2, and 10 glucose, pH7.4.) and further incubated in the dark at room temperature for 30 min. The cells were then washed five times with 100 μL assay buffer and then calcium influx to serial dilutions of inventive compounds were measured in a Flexstation 3 (Molecular Devices). Receptor activation was initiated following addition of 20 μl of a 10-fold concentrated ligand stock solution, which is also prepared in assay buffer. Fluorescence was continuously monitored for 15 seconds prior to ligand addition and for 105 seconds after ligand addition, for a total of 120 seconds. Maximal receptor activation in relation to solvent control and relative to 31.6 μM menthol is determined. Data from serial dilutions were processed with a KNIME workflow to fit a sigmoidal dose-response curve and to extrapolate […].
Turning to `COCc1ccc(-c2cnc(C3CCCCN3C(=O)C(C)SC)[nH]2)cc1F` (centres unmarked) [Compound 64, 1-(2-(5-(3-fluoro-4-(methoxymethyl)phenyl)-1H-imidazol-2-yl)piperidin-1-yl)-2-(methylthio)propan-1-one], the EC50 was in the range of 0.05 to 0.3 µM. As for `CSC(C)C(=O)N1CCCCC1c1ncc(-c2ccc(C)c(F)c2)[nH]1` (centres unmarked) [Compound 65, 1-(2-(5-(3-fluoro-4-methylphenyl)-1H-imidazol-2-yl)piperidin-1-yl)-2-(methylthio)propan-1-one], the EC50 was < 0.05 µM.

For `CSC(C)C(=O)N1CCCCC1c1ncc(-c2cccc(F)c2)[nH]1` (centres unmarked) [Compound 66, 1-(2-(5-(3-fluorophenyl)-1H-imidazol-2-yl)piperidin-1-yl)-2-(methylthio)propan-1-one], the EC50 was < 0.05 µM. The same measure for `COc1nscc1-c1cnc(C2CCCCN2C(=O)C(C)SC)[nH]1` (centres unmarked) [Compound 67, 1-(2-(5-(3-methoxyisothiazol-4-yl)-1H-imidazol-2-yl)piperidin-1-yl)-2-(methylthio)propan-1-one]: 1 to 35 µM.

On to `COc1cccc(-c2cnc(C3CCCCN3C(=O)C(C)SC)[nH]2)c1` (centres unmarked) [Compound 68, 1-(2-(5-(3-methoxyphenyl)-1H-imidazol-2-yl)piperidin-1-yl)-2-(methylthio)propan-1-one], for which the EC50 fell in the range of 0.05 to 0.3 µM. The same measure for `CNCc1ccc(-c2cnc(C3CCCCN3C(=O)C(C)SC)[nH]2)cc1` (centres unmarked) [Compound 69, 1-(2-(5-(4-((methylamino)methyl)phenyl)-1H-imidazol-2-yl)piperidin-1-yl)-2-(methylthio)propan-1-one]: 1 to 35 µM; for `COCCc1ccc(-c2cnc(C3CCCCN3C(=O)C(C)SC)[nH]2)cc1` (centres unmarked) [Compound 70, 1-(2-(5-(4-(2-methoxyethyl)phenyl)-1H-imidazol-2-yl)piperidin-1-yl)-2-(methylthio)propan-1-one]: 0.05 to 0.3 µM; for `CSC(C)C(=O)N1CCCCC1c1ncc(-c2ccc(CN)cc2)[nH]1` (centres unmarked) [Compound 71, 1-(2-(5-(4-(aminomethyl)phenyl)-1H-imidazol-2-yl)piperidin-1-yl)-2-(methylthio)propan-1-one]: < 0.05 µM. Turning to `CSC(C)C(=O)N1CCCCC1c1ncc(-c2ccc(N(C)C)cc2)[nH]1` (centres unmarked) [Compound 72, 1-(2-(5-(4-(dimethylamino)phenyl)-1H-imidazol-2-yl)piperidin-1-yl)-2-(methylthio)propan-1-one], the EC50 fell in the range of 0.05 to 0.3 µM. As to `CSC(C)C(=O)N1CCCCC1c1ncc(-c2ccc(CO)cc2)[nH]1` (centres unmarked) [Compound 73, 1-(2-(5-(4-(hydroxymethyl)phenyl)-1H-imidazol-2-yl)piperidin-1-yl)-2-(methylthio)propan-1-one], the EC50 fell in the range of 0.3 to 1 µM. The same measure for `CSC(C)C(=O)N1CCCCC1c1ncc(-c2ccc(C(C)=O)cc2)[nH]1` (centres unmarked) [Compound 74, 1-(2-(5-(4-acetylphenyl)-1H-imidazol-2-yl)piperidin-1-yl)-2-(methylthio)propan--one]: < 0.05 µM.

Turning to `CSC(C)C(=O)N1CCCCC1c1ncc(-c2ccc(N)cc2)[nH]1` (centres unmarked) [Compound 75, 1-(2-(5-(4-aminophenyl)-1H-imidazol-2-yl)piperidin-1-yl)-2-(methylthio)propan-1-one], the EC50 was < 0.05 µM. The same measure for `CSC(C)C(=O)N1CCCCC1c1ncc(-c2ccc(Cl)c(F)c2)[nH]1` (centres unmarked) [Compound 76, 1-(2-(5-(4-chloro-3-fluorophenyl)-1H-imidazol-2-yl)piperidin-1-yl)-2-(methylthio)propan-1-one]: < 0.05 µM; for `CSC(C)C(=O)N1CCCCC1c1ncc(-c2ccc(Cl)cc2)[nH]1` (centres unmarked) [Compound 77, 1-(2-(5-(4-chlorophenyl)-1H-imidazol-2-yl)piperidin-1-yl)-2-(methyltbio)propan-1-one]: < 0.05 µM; for `CCc1ccc(-c2cnc(C3CCCCN3C(=O)C(C)SC)[nH]2)cc1` (centres unmarked) [Compound 78, 1-(2-(5-(4-ethylphenyl)-1H-imidazol-2-yl)piperidin-1-yl)-2-(methylthio)propan-1-one]: < 0.05 µM. Turning to `CSC(C)C(=O)N1CCCCC1c1nnc(-c2ccc(F)cc2)[nH]1` (centres unmarked) [Compound 79, 1-(2-(5-(4-fluorophenyl)-4H-1,2,4-triazol-3-yl)piperidin-1-yl)-2-(methylthio)propan-1-one], the EC50 was < 0.05 µM. `COc1ccc(-c2cnc(C3CCCCN3C(=O)C(C)SC)[nH]2)c(C)c1` (centres unmarked) [Compound 80, 1-(2-(5-(4-methoxy-2-methylphenyl)-1H-imidazol-2-yl)piperidin-1-yl)-2-(methylthio)propan-1-one]: the EC50 was < 0.05 µM. The same measure for `COc1ccc(-c2cnc(C3CCCCN3C(=O)C(C)SC)[nH]2)cc1` (centres unmarked) [Compound 81, 1-(2-(5-(4-methoxyphenyl)-1H-imidazol-2-yl)piperidin-1-yl)-2-(methylthio)propan-1-one]: < 0.05 µM; for `CSc1cc(C)c(-c2cnc(C3CCCCN3C(=O)C(C)SC)[nH]2)cn1` (centres unmarked) [Compound 82, 1-(2-(5-(4-methyl-6-(methylthio)pyridin-3-yl)-1H-imidazol-2-yl)piperidin-1-yl)-2-(methylthio)propan-1-one]: 0.3 to 1 µM; for `COCc1cc(-c2cnc(C3CCCCN3C(=O)C(C)SC)[nH]2)cs1` (centres unmarked) [Compound 83, 1-(2-(5-(5-(methoxymethyl)thiophen-3-yl)-1H-imidazol-2-yl)piperidin-1-yl)-2-(methylthio)propan-1-one]: 0.05 to 0.3 µM. Turning to `COc1ccc(-c2cnc(C3CCCCN3C(=O)C(C)SC)[nH]2)cn1` (centres unmarked) [Compound 84, 1-(2-(5-(6-methoxypyridin-3-yl)-1H-imidazol-2-yl)piperidin-1-yl)-2-(methylthio)propan-1-one], the EC50 fell in the range of 0.05 to 0.3 µM.

Turning to `CSC(C)C(=O)N1CCCCC1c1ncc(-c2ccc3c(c2)OCO3)[nH]1` (centres unmarked) [Compound 85, 1-(2-(5-(benzo[d][1,3]dioxol-5-yl)-1H-imidazol-2-yl)piperidin-1-yl)-2-(methylthio)propan-1-one], the EC50 was < 0.05 µM.

On to `CCC(=O)N1CCCCC1c1ncc(-c2ccc(C)cc2)[nH]1` (centres unmarked) [Compound 86, 1-(2-(5-(p-tolyl)-1H-imidazol-2-yl)piperidin-1-yl)propan-1-one], for which the EC50 was 0.05 to 0.3 µM. The same measure for `CSC(C)C(=O)N1CCCCC1c1ncc(Cc2ccccc2)[nH]1` (centres unmarked) [Compound 87, 1-(2-(5-benzyl-1H-imidazol-2-yl)piperidin-1-yl)-2-(methylthio)propan-1-one]: 1 to 35 µM. Take `CSC(C)C(=O)N1CCCCC1c1ncc(Br)[nH]1` (centres unmarked) [Compound 88, 1-(2-(5-bromo-1H-imidazol-2-yl)piperidin-1-yl)-2-(methylthio)propan-1-one]: the EC50 lay within 0.3 to 1 µM.

`CSC(C)C(=O)N1CCCCC1c1ncc(-c2ccccc2C#N)[nH]1` (centres unmarked) [Compound 89, 2-(2-(1-(2-(methylthio)propanoyl)piperidin-2-yl)-1H-imidazol-5-yl)benzonitrile]: the EC50 lay within 0.3 to 1 µM. For the compound `Cc1ccc(C(C)C(=O)N2CCCCC2c2nc(-c3ccccc3)c[nH]2)o1` (centres unmarked) [Compound 91, 2-(5-methylfuran-2-yl)-1-(2-(4-phenyl-1H-imidazol-2-yl)piperidin-1-yl)propan-1-one], the EC50 lay within 0.05 to 0.3 µM. Regarding `C=CCSC(C)C(=O)N1CCCCC1c1ncc(-c2ccc(C)cc2)[nH]1` (centres unmarked) [Compound 92, 2-(allylthio)-1-(2-(5-(p-tolyl)-1H-imidazol-2-yl)piperidin-1-yl)propan-1-one], the EC50 was < 0.05 µM.

With `CCC(C(=O)N1CCCCC1c1nc(-c2ccccc2)c[nH]1)N(C)C` (centres unmarked) [Compound 93, 2-(dimethylamino)-1-(2-(4-phenyl-1H-imidazol-2-yl)piperidin-1-yl)butan-1-one], the EC50 is 1 to 35 µM. In the case of `C[C@H](C(=O)N1CCCCC1c1nc(-c2ccccc2)c[nH]1)N(C)C` (stereo partly drawn) [Compound 94, (2R)-2-(dimethylamino)-1-(2-(4-phenyl-1H-imidazol-2-yl)piperidin-1-yl)propan-1-one], the EC50 lay within 0.3 to 1 µM.

With `O=C(Cc1ccco1)N1CCCCC1c1nc(-c2ccccc2)c[nH]1` (centres unmarked) [Compound 96, 2-(furan-2-yl)-1-(2-(4-phenyl-1H-imidazol-2-yl)piperidin-1-yl)ethan-1-one], the EC50 was in the range of 1 to 35 µM. On to `CC(C(=O)N1CCCCC1c1nc(-c2ccccc2)c[nH]1)c1ccco1` (centres unmarked) [Compound 97, 2-(furan-2-yl)-1-(2-(4-phenyl-1H-imidazol-2-yl)piperidin-1-yl)propan-1-one], for which the EC50 was in the range of 0.05 to 0.3 µM. `O=C(Cc1ccoc1)N1CCCCC1c1nc(-c2ccccc2)c[nH]1` (centres unmarked) [Compound 98]: the EC50 is 0.05 to 0.3 µM.

Take `Cc1ccc(-c2cnc(C3CCCCN3C(=O)C(C)c3ccoc3)[nH]2)cc1` (centres unmarked) [Compound 99, 2-(furan-3-yl)-1-(2-(5-(p-tolyl)-1H-imidazol-2-yl)piperidin-1-yl)propan-1-one]: the EC50 was < 0.05 µM.

Turning to `CNCC(=O)Nc1ccc(-c2cnc(C3CCCCN3C(=O)C(C)SC)[nH]2)cc1` (centres unmarked) [Compound 100, 2-(methylamino)-N-(4-(2-(1-(2-(methylthio)propanoyl)piperidin-2-yl)-1H-imidazol-5-yl)phenyl)acetamide], the EC50 is 0.05 to 0.3 µM.
